In US9040547B2, “Pyrrolopyrimidine and purine derivatives” (PFIZER INC., priority 2011, dated 2015):

How the values were obtained:
Type in all cases: cell-based
EGFR E746-A750 deletion = EGFR E746-A750 deletion (Homo sapiens, UniProt P00533, DEL746-750); assay: pEGFR Y1068 ELISA assay, NIH3T3/EGFR_E746-A750 deletion cells; conditions: 3T3 Del cells, 2 hrs compound treatment; read-out: ELISA7E 3T3 Del IC50;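 further: sandwich ELISA on cell lysates detecting phospho-EGFR at Tyr1068, compounds run as 11-point threefold dilution series in duplicate, IC50 from inhibition of this phosphorylation signal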
EGFR L858R+T790M = EGFR L858R+T790M (Homo sapiens, UniProt P00533, L858R/T790M); assay: pEGFR Y1068 ELISA assay, NIH3T3/EGFR_L858R+T790M cells; conditions: 3T3 cell line, 2 hrs compound treatment; read-out: pEGFRY1068 ELISA3T3T790M—L858R IC50;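 further: sandwich ELISA of EGFR phosphorylated at Tyr1068 in lysates of stably transfected NIH/3T3 cells, 11-point threefold dilution series run in duplicate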
EGFR Del (PC9) = biological target: T1, EGFR Del (PC9) (Homo sapiens, UniProt P00533, DEL746-750); assay: EGFR ELISA, PC9 Del cells; conditions: read-out: EGFR_ELISA9E PC9 Del IC50;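 further: cellular EGFR autophosphorylation at Tyr1068 quantified by sandwich ELISA of cell lysates after 2 h compound exposure at 37 °C, 11-point threefold dilution series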
T1 construct: endogenous in cells; host or cells: PC-9

[1] = tested on: NIH3T3/EGFR_E746-A750_deletion+T790M; assay: Cell proliferation assay (CellTiter-Glo), NIH3T3/EGFR_E746-A750_deletion+T790M; conditions: Mus musculus, NIH3T3, 120 h, 3T3 cell line, three to five days of compound treatment, read-out: 3T3 del_T790M IC50
Procedure: (§1) Cell proliferation was measured using the CellTiter-Glo® Luminescent Cell Viability Assay. The assay involves the addition of a single reagent (CellTiter-Glo® Reagent) directly to cells cultured in serum-supplemented medium. The assay uses this one-step addition to induce cell lysis and generate a luminescent signal proportional to the amount of ATP present which is directly proportional to the number of metabolically active cells present in culture. The following cell lines were evaluated in this assay: NIH3T3/EGFR_L858R, NIH3T3/EGFR_E746-A750_deletion, NIH3T3/EGFR L858R+T790M, NIH3T3/EGFR_E746-A750_deletion+T790M, PC-9, PC9-DRH, NCI-H1975, and NCI-H3255. NIH/3T3 parental cells, NCI-H1975, and NCI-H3255 were purchased from the American Type Culture Collection (Manassas, Va.), and PC-9 cells were obtained from Japan. All cells were cultured according to recommendations. NIH/3T3 cells were grown in DMEM (Invitrogen, Carlsbad, Calif.) supplemented with 10% newborn calf serum (Invitrogen), and NIH3T3/EGFR mutant cells were grown in complete media with 5 μg/mL puromycin (Invitrogen). PC-9, NCI-H1975, and NCI-H3255 were grown in RPMI (Invitrogen, Carlsbad, Calif.) supplemented with 10% FBS (Sigma, St Louis, Mo.), and PC9-DRH cells were grown in complete media with 2 uM PF-00299804. Plasmids (pLPCX) with various EGFR constructs were made by GenScript (Piscataway, N.J.), and stable pools of NIH/3T3 cells expressing these constructs were made at Pfizer La Jolla. PC9-DRH cells were generated at Pfizer La Jolla by exposing cells to increasing concentrations of PF-00299804. Cells were plated in complete culture media (3000-5000 cells/well, 50 μl/well) on the bottom of white clear-bottom tissue culture treated microtiter plates (#3610, Corning Inc, Corning, N.Y.) and allowed to adhere overnight at 37° C., 5% CO2. The following day, compound dilution plates were prepared in 96 well clear V-bottom 0.5 mL polypropylene block plates (#3956, Corning, Inc). All cell lines were not evaluated for each compound. Each compound evaluated was prepared as a DMSO stock solution (10 mM). Compounds were tested in duplicate on each plate, with an 11-point serial dilution curve (1:3 dilution). Compound treatment (50 μl) was added from the compound dilution plate to the cell plate. The highest compound concentration was 1 or 10 μM (final), with a 0.3% final DMSO (#D-5879, Sigma, St Louis, Mo.) concentration. Plates were then incubated at 37° C., 5% CO2. After three to five days of compound treatment, CellTiter-Glo® Reagent (#G7573, Promega, Madison, Wis.) was prepared in one of two ways. If thawing a frozen aliquot of CellTiter-Glo® Reagent, the aliquot was thawed and equilibrated to room temperature prior to use while keeping it protected from light. Alternatively, new bottles of CellTiter-Glo® Buffer and CellTiter-Glo® Substrate were thawed and equilibrated to room temperature prior to use. CellTiter-Glo® Buffer (100 mL) was transferred into the amber bottle containing CellTiter-Glo® Substrate to reconstitute the lyophilized enzyme/substrate mixture, forming the CellTiter-Glo® Reagent. The reconstituted reagent was mixed by gently inverting the contents to obtain a homogeneous solution, and went into solution easily in less than one minute. Any unused reconstituted CellTiter-Glo® Reagent was immediately aliquoted and frozen at −20° C., protected from light. Cell plates were equilibrated at room temperature for approximately 30 minutes. An equivolume amount of CellTiter-Glo® Reagent (100 μL) was added to each well. Plates were mixed for two minutes on an orbital shaker to induce cell lysis, and then allowed to incubate at room temperature for 10 minutes to stabilize the luminescent signal. Luminescence was recorded using the PerkinElmer EnVision Excite Multilabel Reader used for endpoint reading for Luminescence detection (Waltham, Mass.). Data were analyzed using a four-parameter fit in Microsoft Excel. […]

NIH3T3/EGFR L858R+T790M = assay: Cell proliferation assay (CellTiter-Glo), NIH3T3/EGFR L858R+T790M; conditions: Mus musculus, NIH3T3, 120 h, 3T3 cell line, three to five days of compound treatment, read-out: 3T3 L858R_T790M IC50
[2] = tested on: NIH3T3/EGFR_E746-A750_deletion; assay: Cell proliferation assay (CellTiter-Glo), NIH3T3/EGFR_E746-A750_deletion; conditions: Mus musculus, NIH3T3, 120 h, 3T3 cell line, three to five days of compound treatment, read-out: 3T3 del IC50
Procedure: as §1

[3] = biological target: T2, EGFR wildtype, endogenous (Homo sapiens, UniProt P00533); assay: pEGFR Y1068 ELISA assay, A549 cells; conditions: full serum media, stimulated 10 min with EGF (40 ng/mL), read-out: pEGFRY1068 ELISAA549 IC50;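 further: sandwich ELISA of phospho-EGFR Tyr1068 in cell lysates, cells exposed to compound for 2 h before EGF stimulation, 11-point threefold dilution series run in duplicate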
T2 construct: A549 (EGFR wildtype, endogenous); host or cells: A549

NIH3T3/EGFR_L858R = assay: Cell proliferation assay (CellTiter-Glo), NIH3T3/EGFR_L858R; conditions: Mus musculus, NIH3T3, 120 h, 3T3 cell line, three to five days of compound treatment, read-out: 3T3 L858R IC50
Procedure: as §1

EGFR L858R = EGFR L858R (Homo sapiens, UniProt P00533, L858R); assay: pEGFR Y1068 ELISA assay, NIH3T3/EGFR_L858R cells; conditions: 3T3 cell line, 2 hrs compound treatment; read-out: pEGFRY1068 ELISA3T3 L858R IC50;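 further: sandwich ELISA of phospho-EGFR Tyr1068 in lysates of stably transfected NIH/3T3 pools after 2 h compound exposure at 37 °C, 11-point threefold dilution series run in duplicate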
[4] = biological target: T3, EGFR L858R+T790M, endogenous (Homo sapiens, UniProt P00533, L858R/T790M); assay: pEGFR Y1068 ELISA assay, NCI-H1975 cells; conditions: value marked (H1975): NCI-H1975 cells, 2 hrs compound treatment; read-out: pEGFRY1068 ELISA3T3T790M—L858R IC50 (nM), (H1975);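 further: sandwich ELISA of endogenous phospho-EGFR (Tyr1068) in lysates of treated cells, 11-point 1:3 serial dilution tested in duplicate per plate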
T3 construct: NCI-H1975 (EGFR L858R+T790M, endogenous); host or cells: NCI-H1975
T3 sequence (P00533 25-1210 T790M/L858R): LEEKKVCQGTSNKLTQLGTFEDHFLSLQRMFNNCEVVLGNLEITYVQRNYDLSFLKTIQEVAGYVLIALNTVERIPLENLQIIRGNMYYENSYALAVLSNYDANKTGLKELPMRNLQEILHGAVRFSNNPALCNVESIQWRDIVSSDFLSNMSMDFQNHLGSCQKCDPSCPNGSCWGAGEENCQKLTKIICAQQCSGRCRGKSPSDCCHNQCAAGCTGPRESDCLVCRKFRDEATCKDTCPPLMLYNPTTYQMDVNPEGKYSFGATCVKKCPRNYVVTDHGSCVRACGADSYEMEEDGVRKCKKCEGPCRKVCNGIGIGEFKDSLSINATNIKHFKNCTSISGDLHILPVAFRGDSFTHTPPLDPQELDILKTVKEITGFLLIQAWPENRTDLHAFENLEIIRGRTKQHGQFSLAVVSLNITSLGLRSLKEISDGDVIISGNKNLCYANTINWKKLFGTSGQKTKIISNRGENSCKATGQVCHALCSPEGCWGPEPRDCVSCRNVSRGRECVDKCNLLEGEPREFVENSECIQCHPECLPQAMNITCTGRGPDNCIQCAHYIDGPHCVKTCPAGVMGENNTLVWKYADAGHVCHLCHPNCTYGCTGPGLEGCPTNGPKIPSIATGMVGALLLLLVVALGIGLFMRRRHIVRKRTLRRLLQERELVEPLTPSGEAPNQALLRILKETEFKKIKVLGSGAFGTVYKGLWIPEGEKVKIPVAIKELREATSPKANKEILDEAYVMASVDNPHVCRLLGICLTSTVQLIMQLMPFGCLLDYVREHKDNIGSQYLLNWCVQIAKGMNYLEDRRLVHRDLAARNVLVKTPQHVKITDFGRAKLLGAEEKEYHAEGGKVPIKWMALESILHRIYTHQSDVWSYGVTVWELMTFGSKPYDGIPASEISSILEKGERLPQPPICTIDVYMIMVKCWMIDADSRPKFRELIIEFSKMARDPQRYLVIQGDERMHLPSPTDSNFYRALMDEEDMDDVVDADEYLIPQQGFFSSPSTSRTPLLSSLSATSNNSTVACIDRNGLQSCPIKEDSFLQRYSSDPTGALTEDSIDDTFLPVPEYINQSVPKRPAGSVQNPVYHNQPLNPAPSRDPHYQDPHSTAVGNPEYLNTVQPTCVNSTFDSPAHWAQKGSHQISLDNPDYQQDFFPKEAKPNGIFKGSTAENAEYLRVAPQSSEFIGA

T1 sequence (P00533 with tags, fused parts or gaps DEL746-750): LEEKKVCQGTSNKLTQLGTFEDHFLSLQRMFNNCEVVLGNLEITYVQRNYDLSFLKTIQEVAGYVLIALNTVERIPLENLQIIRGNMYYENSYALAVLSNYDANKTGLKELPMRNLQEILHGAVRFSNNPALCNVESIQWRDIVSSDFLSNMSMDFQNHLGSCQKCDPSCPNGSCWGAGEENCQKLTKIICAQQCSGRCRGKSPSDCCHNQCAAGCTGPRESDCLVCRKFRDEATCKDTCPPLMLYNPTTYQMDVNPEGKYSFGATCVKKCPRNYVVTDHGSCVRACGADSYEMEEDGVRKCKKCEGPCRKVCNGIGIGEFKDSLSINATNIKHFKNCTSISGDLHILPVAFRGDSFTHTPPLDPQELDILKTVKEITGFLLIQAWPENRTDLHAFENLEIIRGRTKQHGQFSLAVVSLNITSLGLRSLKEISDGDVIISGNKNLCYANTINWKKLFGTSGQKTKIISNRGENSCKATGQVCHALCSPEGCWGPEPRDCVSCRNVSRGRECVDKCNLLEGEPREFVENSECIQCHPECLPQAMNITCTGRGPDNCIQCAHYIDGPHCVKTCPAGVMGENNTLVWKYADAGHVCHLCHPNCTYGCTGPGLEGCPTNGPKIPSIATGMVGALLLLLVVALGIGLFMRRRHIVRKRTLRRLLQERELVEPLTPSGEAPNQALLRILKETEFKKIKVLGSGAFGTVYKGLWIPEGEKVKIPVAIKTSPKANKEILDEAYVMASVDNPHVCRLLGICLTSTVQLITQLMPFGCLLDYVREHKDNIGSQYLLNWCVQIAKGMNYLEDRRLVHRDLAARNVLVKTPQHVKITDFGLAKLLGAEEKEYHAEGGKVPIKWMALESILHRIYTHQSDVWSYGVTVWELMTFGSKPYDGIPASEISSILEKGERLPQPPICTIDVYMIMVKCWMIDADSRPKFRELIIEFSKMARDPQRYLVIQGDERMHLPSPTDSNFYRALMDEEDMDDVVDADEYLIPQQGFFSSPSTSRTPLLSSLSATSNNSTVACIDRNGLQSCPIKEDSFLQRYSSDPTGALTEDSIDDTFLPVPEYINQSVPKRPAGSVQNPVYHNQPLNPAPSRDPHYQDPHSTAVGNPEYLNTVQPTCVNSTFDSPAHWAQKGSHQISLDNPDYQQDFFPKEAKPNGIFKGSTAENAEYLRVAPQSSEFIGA
Sequence of EGFR E746-A750 deletion (P00533 with tags, fused parts or gaps DEL746-750): as above
Sequence of EGFR L858R+T790M (P00533 25-1210 T790M/L858R): as the sequence (P00533 25-1210 T790M/L858R) above

| SMILES | IC50 (EGFR E746-A750 deletion) | IC50 (EGFR L858R+T790M) | IC50 (EGFR Del (PC9)) | IC50 [1] | IC50 (NIH3T3/EGFR L858R+T790M) | IC50 [2] | IC50 [3] | IC50 (NIH3T3/EGFR_L858R) | IC50 (EGFR L858R) | IC50 [4] |
| --- | --- | --- | --- | --- | --- | --- | --- | --- | --- | --- |
| C=CC(=O)N[C@H]1C[C@@H](Oc2nc(Nc3cnn(C)c3)nc3[nH]cc(C#N)c23)C1 (single isomer, unassigned) [Example 5, N-[cis-3-({5-cyano-2-[(1-methyl-1H-pyrazol-4-yl)amino]-7H-pyrrolo[2,3-d]pyrimidin-4-yl}oxy)cyclobutyl]prop-2-enamide] | 1320 nM | 221 nM | 982 nM | 100 to 1000 nM | 100 to 1000 nM | 100 to 1000 nM | > 10000 nM | > 1000 nM | 1810 nM |  |
| C=CC(=O)N[C@@H]1CCCN(c2nc(Nc3cnn(C)c3)nc3[nH]cc(Cl)c23)C1 [Example 11, N-[(3R)-1-{5-chloro-2-[(1-methyl-1H-pyrazol-4-yl)amino]-7H-pyrrolo[2,3-d]pyrimidin-4-yl}piperidin-3-yl]prop-2-enamide] |  |  |  | 100 to 1000 nM | 100 to 1000 nM | > 1000 nM | > 10000 nM | > 1000 nM | 8860 nM | 525 nM |
| C=CC(=O)Nc1cccc(Oc2nc(Nc3ccn(CC)n3)nc3[nH]ccc23)c1 [Example 22] | 27 nM | 11 nM |  | < 10 nM | 10 to 100 nM | < 10 nM | > 10000 nM | 100 to 1000 nM | 81 nM |  |
| C=CC(=O)Nc1cccc(Oc2nc(Nc3cc[nH]n3)nc3[nH]ccc23)c1 [Example 27] | 56 nM |  |  |  |  |  | > 10000 nM |  |  | 146 nM |
| C=CC(=O)Nc1cccc(Oc2nc(Nc3cn(C)nc3C(F)(F)F)nc3[nH]ccc23)c1 [Example 32] | 98 nM | 9 nM |  | < 10 nM | 10 to 100 nM | 10 to 100 nM | 1340 nM | > 1000 nM | 47 nM |  |
| C=CC(=O)Nc1cccc(Oc2nc(Nc3ccn(C)n3)nc3[nH]cc(C#N)c23)c1 [Example 36] | 45 nM | 20 nM |  | 10 to 100 nM | 100 to 1000 nM | 10 to 100 nM | > 10000 nM | > 1000 nM | 418 nM |  |
| C=CC(=O)Nc1cccc(Oc2nc(Nc3cnn(C)n3)nc3[nH]ccc23)c1 [Example 40] | 44 nM | 20 nM |  | < 10 nM | 10 to 100 nM | 10 to 100 nM | > 6380 nM | > 1000 nM | 99 nM |  |
| C=CC(=O)Nc1cccc(Oc2nc(Nc3cnn(C)c3)nc3[nH]cc(C#N)c23)c1 [Example 57] | 25 nM | 67 nM | 44 nM | 10 to 100 nM | 10 to 100 nM | < 10 nM | > 10000 nM | > 1000 nM | 105 nM |  |
| C=CC(=O)N(C)[C@H]1C[C@H](Oc2nc(Nc3cn(C)nc3C)nc3[nH]cc(Cl)c23)C1 [Example 62] | 237 nM | 10 nM | 558 nM | < 10 nM | 10 to 100 nM | 10 to 100 nM | > 10000 nM | 10 to 100 nM | 218 nM |  |
| C=CC(=O)N[C@H]1C[C@H](Oc2nc(Nc3cnn(C)c3)nc3[nH]cc(Cl)c23)C1 [Example 63] | 1220 nM | 67 nM |  | 100 to 1000 nM | > 1000 nM | > 1000 nM | > 10000 nM | > 1000 nM | 2010 nM |  |
| C=CC(=O)N1CC[C@@H](Oc2nc(Nc3cnn(C)c3)nc3[nH]cc(Cl)c23)C1 [Example 65] | 1170 nM | 44 nM |  | 10 to 100 nM | 100 to 1000 nM | 100 to 1000 nM | > 10000 nM | 100 to 1000 nM | 510 nM |  |
| C=CC(=O)N1C[C@H](COc2nc(Nc3cn(C)nc3CC)nc3[nH]cc(F)c23)[C@@H](OC)C1 [Example 68] | 1060 nM | 42 nM |  | 10 to 100 nM | 100 to 1000 nM | 100 to 1000 nM | > 10000 nM | 100 to 1000 nM | 208 nM |  |
| C=CC(=O)N1C[C@H](COc2nc(Nc3cn(C)nc3OC)nc3[nH]cc(Cl)c23)[C@@H](OC)C1 [Example 70] | 269 nM | 12 nM | 592 nM | 10 to 100 nM | 100 to 1000 nM | 100 to 1000 nM | > 10000 nM | 100 to 1000 nM | 113 nM |  |
| C=CC(=O)N1C[C@@H]2CN(c3nc(Nc4cnn(C)c4)nc4[nH]cc(Cl)c34)C[C@@H]2C1 [Example 71] | 356 nM | 20 nM |  | 10 to 100 nM | 100 to 1000 nM | 10 to 100 nM | > 5460 nM | 100 to 1000 nM | 143 nM |  |
| C=CC(=O)N[C@H]1CC[C@@H](Oc2nc(Nc3cnn(C)c3)nc3[nH]cc(Cl)c23)C1 [Example 77] |  |  |  | 100 to 1000 nM | 100 to 1000 nM | > 1000 nM | > 10000 nM | > 1000 nM | 5190 nM | 301 nM |
| C=CC(=O)Nc1cc(F)cc(Oc2nc(Nc3cnn([C@@H]4CCN(C)C4)c3)nc3[nH]ccc23)c1 [Example 107] | 12 nM | 3 nM |  | < 10 nM | 10 to 100 nM | < 10 nM | 2170 nM | 10 to 100 nM | 26 nM |  |
| C=CC(=O)N(C)[C@H]1C[C@H](Oc2nc(Nc3cnn(C)c3)nc3[nH]cc(Cl)c23)C1 [Example 108] | 81 nM | 7 nM | 352 nM | < 10 nM | 10 to 100 nM | 10 to 100 nM | > 10000 nM | 100 to 1000 nM | 164 nM |  |
